Laboratory results from patent US20080139649A1, “Fatty Acid-Benzenediol Derivatives and Methods of Making and Using Thereof” (priority 2005, published 2008).

Assay: Solubility of CoQ10 in fish oil and fish oil concentrates under different conditions and time of storage
Assay type: physicochemical
Details: for Solubility of CoQ10 in 1812TG, confirmed solubility / Solubility of CoQ10 in 4020EE, confirmed solubility: heating prior storage
Description: CoQ10 was solubilized in 0355 EE (fish oil concentrate in ethylester form containing 3% EPA and 55% DHA), 4020EE (fish oil concentrate in ethylester form containing 40% EPA and 20% DHA) and 1812TG (purified fish oil containing 18% EPA and 12% of DHA) and the final solubility was examined under different conditions and time of storage. All of these starting oils were manufactured by Ocean Nutrition Canada, Mulgrave, NS).

COC1=C(OC)C(=O)C(C/C=C(\C)CC/C=C(\C)CC/C=C(\C)CC/C=C(\C)CC/C=C(\C)CC/C=C(\C)CC/C=C(\C)CC/C=C(\C)CC/C=C(\C)CCC=C(C)C)=C(C)C1=O [CoQ10ox, 2,3-dimethyoxy-5-methyl-6-decaprenyl-1,4-benzoquinone]
Solubility of CoQ10 in 0355EE, confirmed solubility (0355EE (ethylester concentrate, 3% EPA, 55% DHA), solubility at RT, no heating prior storage): 6.6 %, w/w | Solubility of CoQ10 in 0355EE, confirmed solubility (0355EE, solubility at 50° C.): 27%, w/w | Solubility of CoQ10 in 0355EE, confirmed solubility (0355EE, storage at 4° C. (line after solubility at 50° C.)): 3.2%, w/w | Solubility of CoQ10 in 0355EE, confirmed solubility (0355EE, storage at 4° C. for 24 h, no heating prior storage): 2.5 %, w/w | Solubility of CoQ10 in 1812TG, confirmed solubility (1812TG (purified fish oil, 18% EPA, 12% DHA), solubility at 50° C.): 11 %, w/w | Solubility of CoQ10 in 1812TG, confirmed solubility (1812TG, storage at 4° C.): <2.9 %, w/w | Solubility of CoQ10 in 4020EE, confirmed solubility (4020EE (ethylester concentrate, 40% EPA, 20% DHA), solubility at 50° C.): 9 %, w/w | Solubility of CoQ10 in 4020EE, confirmed solubility (4020EE, storage at 4° C.): 5.7 %, w/w
